In patent US20260021064A1, “ACETAMINOPHEN AND NAPROXEN FOR TREATING PAIN” (Kenvue Brands LLC, priority 2022, published 2026):
Read-outs that look alike come from different tables or passages of the source.

Legend:
[1] = tested on: pain after surgical extraction of four third molars; details: for PID Score, Least Squares Mean (Standard Error): PI-NRS 0-10, difference from baseline
Experimental: (§1) 1. Time-Weighted Sum of Pain Intensity Difference Score From Baseline (0 Hour) to 6 Hours (SPID 0-6) [Time Frame: Baseline (0 hour) up to 6 hours post-dose]. Time-weighted sum of the pain intensity difference (SPID) score was measured using a Pain Intensity-Numerical Rating Scale (PI-NRS) ranging from 0-10 (0=no pain, 10=very severe pain). The possible range of SPID for 0-6 hours was from −60 to 60. A higher value of SPID indicated greater pain relief. PID was the difference between baseline pain intensity and pain intensity at assessment. Time-weighted sum of the pain intensity difference scores were derived by first multiplying each PID score by the time from the previous time point and adding these time-weighted PID scores together over the intervals from 0 to 6 hours.
2. Time-weighted Sum of Pain Intensity Difference Score From Baseline (0 Hour) to 12 Hours (SPID 0-12) [Time Frame: Baseline (0 hour) up to 12 hours post-dose]. Time-weighted sum of the pain intensity difference score was measured using a PI-NRS ranging from 0-10 (0=no pain, 10=very severe pain). The possible range of SPID for 0-12 hours was from-120 to 120. A higher value of SPID indicated greater pain relief. PID was the difference between baseline pain intensity and pain intensity at assessment (12 hours). Time-weighted sum of the pain intensity difference scores were derived by first multiplying each PID score by the time from the previous time point and adding these time-weighted PID scores together over the intervals from 0 to 12 hours.
4. Time-Weighted Sum of Pain Intensity Difference Score From Baseline (0 Hour) to 8 Hours (SPID 0-8) [Time Frame: Baseline (0 hour) up to 8 hours post-dose]. Time-weighted sum of the pain intensity difference score was measured using a PI-NRS ranging from 0-10 (0=no pain, 10=very severe pain). The possible range of SPID for 0-8 hours was from −80 to 80. A higher value of SPID indicated greater pain relief. PID was the difference between baseline pain intensity and pain intensity at assessment (8 hours). Time-weighted sum of the pain intensity difference scores were derived by first multiplying each PID score by the time from the previous time point and adding these time-weighted PID scores together over the intervals from 0 to 8 hours.
6. Pain Intensity Difference (PID) Scores at Individual Time Points [Time Frame: 0.25 hours, 0.5 hours, 0.75 hours, 1 hours, 1.25 hours, 1.5 hours, 2 hours, 3 hours, 4 hours, 5 hours, 6 hours, 7 hours, 8 hours, 9 hours, 10 hours, 11 hours, and 12 hours]. Pain Intensity was self-reported over 12 hours, using a pain rating of 0-10 on the PI-NRS, with score ranged from 0-10 (0=no pain; 10 =worst imaginable pain). Pain intensity differences were calculated with respect to baseline at each time point after study drug administration.
as §1, with “Time-Weighted” for “1. Time-Weighted”, “0-6):” for “0-6) [Time Frame: Baseline (0 hour) up to 6 hours post-dose].”
Time-weighted Sum of Pain Intensity Difference Score From Baseline (0 Hour) to 12 Hours (SPID 0-12): Time-weighted sum of the pain intensity difference score was measured using a PI-NRS ranging from 0-10 (0=no pain, 10=very severe pain). The possible range of SPID for 0-12 hours was from-120 to 120. A higher value of SPID indicated greater pain relief. PID was the difference between baseline pain intensity and pain intensity at assessment (12 hours).

[2] = tested on: pain after surgical extraction of four third molars; details: for PAR Score, Least Squares Mean (Standard Error): PR-NRS 0-10
Experimental: (§2) 1. Time-Weighted Sum of Total Pain Relief Score From Baseline (0 Hour) to 6 Hours (TOTPAR 0-6) [Time Frame: Baseline (0 hour) up to 6 hours post-dose]. Time-weighted total pain relief (TOTPAR) was measured using a Pain Relief Numerical Rating Scale (PR-NRS) ranging from 0-10 (0=no relief, 10=complete relief). Total pain relief scores (TOTPARs) were calculated by multiplying the pain relief score at each postdose time point by the duration (in hours) since the preceding time point and then summing these values. The minimum value was 0, and the maximum value was 60. Higher scores was indicative of more pain relief.
as §2, with “2.” for “1.”, “8” for “6”, “0-8)” for “0-6)”, “TOTPAR” for “Time-weighted total pain relief (TOTPAR)”, “PR-NRS” for “Pain Relief Numerical Rating Scale (PR-NRS)”, “80.” for “60.”
as §2, with “3.” for “1.”, “12” for “6”, “0-12)” for “0-6)”, “TOTPAR” for “Time-weighted total pain relief (TOTPAR)”, “PR-NRS” for “Pain Relief Numerical Rating Scale (PR-NRS)”, “120.” for “60.”
5. Pain Relief (PAR) Scores at Individual Timepoints [Time Frame: 0.25 hours, 0.5 hours, 0.75 hours, 1 hours, 1.25 hours, 1.5 hours, 2 hours, 3 hours, 4 hours, 5 hours, 6 hours, 7 hours, 8 hours, 9 hours, 10 hours, 11 hours, and 12 hours]. Participants answered a question at individual time points: “how much relief do you have from your starting pain?” on a 11-point PR-NRS. Scale ranged from 0=no relief to 10=complete relief. Higher score indicated improvement in pain.
as §2, with “Time-Weighted” for “1. Time-Weighted”, “0-6):” for “0-6) [Time Frame: Baseline (0 hour) up to 6 hours post-dose].”
(§3) Time-Weighted Sum of Total Pain Relief Score From baseline (0 Hour) to 8 Hours (TOTPAR 0-8): TOTPAR was measured using a PR-NRS ranging from 0-10 (0=no relief, 10=complete relief). Total pain relief scores (TOTPARs) were calculated by multiplying the pain relief score at each postdose time point by the duration (in hours) since the preceding time point and then summing these values. The minimum value was 0, and the maximum value was 80. Higher scores was indicative of more pain relief.
as §3, with “Baseline” for “baseline”, “Hour” for “Hour)”, “12” for “8”, “0-12):” for “0-8):”, “120.” for “80.”
Pain Relief (PAR) Scores at Timepoints: Participants answered a question at individual time points: “how much relief do you have from your starting pain?” on a 11-point PR-NRS. Scale ranged from 0-no relief to 10-complete relief.

[3] = tested on: pain after surgical extraction of four third molars; details: single oral dose; up to 12 hours; scale poor (0) to excellent (4)
Experimental: Participant's Global Evaluation of Study Medication OR Overall Impression of Study Medication According to Participant's Global Evaluation [Time Frame: Up to 12 hours]. Participants were asked to rate their overall impression of the study medication using the following scale: poor (0), fair (1), good (2), very good (3), and excellent (4) where higher score represented better outcome.
Participant's Global Evaluation of Study Medication OR Overall Impression of Study Medication According to Participant's Global Evaluation: Participants were asked to rate their overall impression of the study medication using the following scale: poor (0), fair (1), good (2), very good (3), and excellent (4) where higher score represented better outcome

COc1ccc2cc([C@H](C)C(=O)O)ccc2c1 [Arm 2: Naproxen Sodium 440 mg, naproxen sodium]
PID Score, Least Squares Mean (Standard Error) ([1]; 0.25 Hours post-dose): 0.58 (0.15) | PID Score, Least Squares Mean (Standard Error) ([1]; 0.5 Hours post-dose): 1.82 (0.24) | PID Score, Least Squares Mean (Standard Error) ([1]; 0.75 Hours post-dose): 3.15 (0.27) | PID Score, Least Squares Mean (Standard Error) ([1]; 1 Hours post-dose): 3.97 (0.28) | PID Score, Least Squares Mean (Standard Error) ([1]; 1.25 Hours post-dose): 4.50 (0.28) | PID Score, Least Squares Mean (Standard Error) ([1]; 1.5 Hours post-dose): 4.72 (0.28) | PID Score, Least Squares Mean (Standard Error) ([1]; 2 Hours post-dose): 4.87 (0.28) | PID Score, Least Squares Mean (Standard Error) ([1]; 3 Hours post-dose): 4.75 (0.30) | PID Score, Least Squares Mean (Standard Error) ([1]; 4 Hours post-dose): 4.63 (0.31) | PID Score, Least Squares Mean (Standard Error) ([1]; 5 Hours post-dose): 4.59 (0.32) | PID Score, Least Squares Mean (Standard Error) ([1]; 6 Hours post-dose): 4.50 (0.32) | PID Score, Least Squares Mean (Standard Error) ([1]; 7 Hours post-dose): 4.36 (0.32) | PID Score, Least Squares Mean (Standard Error) ([1]; 9 Hours post-dose): 4.04 (0.33) | PID Score, Least Squares Mean (Standard Error) ([1]; 10 Hours post-dose): 4.01 (0.35) | PID Score, Least Squares Mean (Standard Error) ([1]; 11 Hours post-dose): 3.99 (0.35) | PID Score, Least Squares Mean (Standard Error) ([1]; 12 Hours post-dose): 3.91 (0.36) | Time-Weighted Sum of Pain Intensity Difference Score From Baseline (0 Hour) to 6 Hours (SPID 0-6), Least Squares Mean (Standard Error) ([1]; single oral dose, possible range -60 to 60, higher = greater pain relief): 25.59 (1.562) | Time-Weighted Sum of Pain Intensity Difference Score From Baseline (0 Hour) to 8 Hours (SPID 0-8), Least Squares Mean (Standard Error) ([1]; single oral dose, possible range -80 to 80, higher = greater pain relief): 34.11 | Time-weighted Sum of Pain Intensity Difference Score From Baseline (0 Hour) to 12 Hours (SPID 0-12), Least Squares Mean (Standard Error) ([1]; single oral dose, possible range -120 to 120, higher = greater pain relief): 50.07 (3.341) | PAR Score, Least Squares Mean (Standard Error) ([2]; 0.25 Hours post-dose): 0.80 (0.18) | PAR Score, Least Squares Mean (Standard Error) ([2]; 0.5 Hours post-dose): 2.27 (0.31) | PAR Score, Least Squares Mean (Standard Error) ([2]; 0.75 Hours post-dose): 4.11 (0.35) | PAR Score, Least Squares Mean (Standard Error) ([2]; 1 Hours post-dose): 5.29 (0.35) | PAR Score, Least Squares Mean (Standard Error) ([2]; 1.25 Hours post-dose): 5.99 (0.35) | PAR Score, Least Squares Mean (Standard Error) ([2]; 1.5 Hours post-dose): 6.36 (0.34) | PAR Score, Least Squares Mean (Standard Error) ([2]; 2 Hours post-dose): 6.62 (0.34) | PAR Score, Least Squares Mean (Standard Error) ([2]; 3 Hours post-dose): 6.52 (0.35) | PAR Score, Least Squares Mean (Standard Error) ([2]; 4 Hours post-dose): 1.46 (0.36) | PAR Score, Least Squares Mean (Standard Error) ([2]; 5 Hours post-dose): 6.45 (0.37) | PAR Score, Least Squares Mean (Standard Error) ([2]; 6 Hours post-dose): 6.26 (0.38) | PAR Score, Least Squares Mean (Standard Error) ([2]; 8 Hours post-dose): 5.95 (0.39) | PAR Score, Least Squares Mean (Standard Error) ([2]; 9 Hours post-dose): 5.73 (0.40) | PAR Score, Least Squares Mean (Standard Error) ([2]; 10 Hours post-dose): 5.71 (0.42) | PAR Score, Least Squares Mean (Standard Error) ([2]; 11 Hours post-dose): 5.71 (0.43) | PAR Score, Least Squares Mean (Standard Error) ([2]; 12 Hours post-dose): 5.62 (0.44) | Time-Weighted Sum of Total Pain Relief Score From Baseline (0 Hour) to 6 Hours (TOTPAR 0-6), Least Squares Mean (Standard Error) ([2]; single oral dose, range 0 to 60, higher = more pain relief): 35.20 (1.848) | Time-Weighted Sum of Total Pain Relief Score From baseline (0 Hour) to 8 Hours (TOTPAR 0-8), Least Squares Mean (Standard Error) ([2]; single oral dose, range 0 to 80, higher = more pain relief): 47.19 | Time-Weighted Sum of Total Pain Relief Score From Baseline (0 Hour to 12 Hours (TOTPAR 0-12), Least Squares Mean (Standard Error)) ([2]; single oral dose, range 0 to 120, higher = more pain relief): 69.96 | Participant's Global Evaluation of Study Medication, Least Squares Mean (Standard Error) [3]: 2.7 (0.13)
